Assay results published in US20240027453A1, “METHOD FOR DETECTION AND QUANTITATIVE MONITORING OF INFECTIONS WITH HERPESVIRUSES” (The Trustees of Princeton University, priority 2020, published 2024).
Like-named read-outs stand apart in the source and are kept apart here.

System: HCMV
Assay type: cell-based
Conditions: FIG. 7A
In short: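 Viral protein levels come from parallel reaction monitoring on a Q Exactive HF: trypsin digests of infected-cell lysates, quantified as summed transition areas, normalized to host control peptides, averaged across peptides per protein. Cells were MRC5 fibroblasts, infected at MOI 3 (HSV-1 or HCMV) after 12 h compound pretreatment, with re-dosing every 24 h.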
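Wherever TRM2 (P16792) protein level is given: each peptide scaled to its average across all runs.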
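Wherever UL29 (P16764) protein level is given: each peptide scaled to its average across all runs.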
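Wherever UL31 (P16848) protein level is given: each peptide scaled to its average across all runs.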
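Wherever UL88 (P16731) protein level is given: each peptide scaled to its average across all runs.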

## Oc1ccc(C=Cc2cc(O)cc(O)c2)cc1 [Resveratrol]
Timepoint 48, IE
  UL122 (P19893) protein level: 0.07155
  UL123 (P13202) protein level: 0.9494
Timepoint 48, L
  CVC1 (P16799) protein level: 0.3339
  GO (P16750) protein level: 0.02075
  IR11 (P16809) protein level: 0.3219
  MCP (P16729) protein level: 0.008603
  SCP (Q7M6N6) protein level: 0.008886
  TRM2 (P16792) protein level: 0.03458
  UL22A (P16845) protein level: 0.2188
  UL25 (P16761) protein level: 0.07603
  UL29 (P16764) protein level: 0.5648
  UL30 (P16765) protein level: 0.14
  UL31 (P16848) protein level: 0.3217
  UL43 (P16781) protein level: 0.06887
  UL52 (P16793) protein level: 0.09774
  UL80 (P16753) protein level: 0.04182
  UL82 (P06726) protein level: 0.2191
  UL88 (P16731) protein level: 0.09401
  UL94 (P16800) protein level: 0.1811
  UL99 (P13200) protein level: 0.09897
  UL103 (P16734) protein level: 0.1489
  UL117 (P16770) protein level: 0.4909
  gL (P16832) protein level: 0.05817
  gM (P16733) protein level: 0.04711
  gN (P16795) protein level: 0.08482
Timepoint 48, LL
  DUT (P16824) protein level: 0.2262
  IR12 (P16810) protein level: 0.2614
  TRM3 (P16732) protein level: 0.02426
  TRX1 (P16783) protein level: 0.01259
  TRX2 (P16728) protein level: 0.01003
  UL24 (P16760) protein level: 0.1046
  UL40 (P16780) protein level: 1.098
  UL47 (P16784) protein level: 0.04257
  UL49 (P16786) protein level: 0.91
  UL69 (P16749) protein level: 0.3024
  UL70 (P17149) protein level: 0.5546
  UL83 (P06725) protein level: 0.03671
  UL132 (P69338) protein level: 0.2027
  US15 (P09718) protein level: 1.334
Timepoint 72, DE
  CVC2 (P16726) protein level: 0.05308
  DBP (P17147) protein level: 0.2031
  HELI (P16736) protein level: 0.7626
  IR01 (P09710) protein level: 0.4495
  NEC2 (P16791) protein level: 0.231
  RIR1 (P16782) protein level: 0.1696
  TRM1 (P16724) protein level: 0.1736
  UL4 (P17146) protein level: 0.1863
  UL26 (P16762) protein level: 0.087
  UL32 (P08318) protein level: 0.09834
  UL34 (P16812) protein level: 0.1945
  UL35 (P16766) protein level: 0.0668
  UL38 (P16779) protein level: 0.6571
  UL44 (P16790) protein level: 0.1077
  UL48 (P16785) protein level: 0.0769
  UL54 (P08546) protein level: 0.8921
  UL71 (P16823) protein level: 0.4201
  UL78 (P16751) protein level: 0.4371
  UL84 (P16727) protein level: 0.1807
  UL95 (P16801) protein level: 0.4887
  UL96 (P16787) protein level: 0.2804
  UL97 (P16788) protein level: 0.2884
  UL98 (P16789) protein level: 0.2614
  UL102 (P16827) protein level: 1.1
  UL104 (P16735) protein level: 0.1108
  UL112/UL113 (P17151) protein level: 0.3912
  UL114 (P16769) protein level: 1.097
  UL119/UL118 (P16739) protein level: 0.2241
  UL128 (P16837) protein level: 0.03713
  US8 (P09730) protein level: 1.041
  US9 (P09729) protein level: 1.966
  US12 (P09721) protein level: 0.2709
  US13 (P09720) protein level: 0.5064
  US14 (P09719) protein level: 0.1413
  US22 (P09722) protein level: 0.5654
  US23 (P09701) protein level: 0.5216
  US24 (P09700) protein level: 0.3422
  gB (P06473) protein level: 0.2078
Timepoint 72, IE
  IRS1 (P09715) protein level: 1.155
  TRS1 (P09695) protein level: 1.081
  UL13 (P16755) protein level: 0.4777
  UL36 (P16767) protein level: 0.8125
  UL37 (P16778) protein level: 0.998
  UL122 (P19893) protein level: 0.0988
  UL123 (P13202) protein level: 0.8573
Timepoint 72, L
  CVC1 (P16799) protein level: 0.4295
  GO (P16750) protein level: 0.03881
  IR11 (P16809) protein level: 0.253
  MCP (P16729) protein level: 0.01144
  SCP (Q7M6N6) protein level: 0.004632
  TRM2 (P16792) protein level: 0.02287
  UL22A (P16845) protein level: 0.2623
  UL25 (P16761) protein level: 0.1265
  UL29 (P16764) protein level: 0.4756
  UL30 (P16765) protein level: 0.1344
  UL31 (P16848) protein level: 0.3595
  UL43 (P16781) protein level: 0.07284
  UL52 (P16793) protein level: 0.1143
  UL76 (P16725) protein level: 0.0261
  UL80 (P16753) protein level: 0.05404
  UL82 (P06726) protein level: 0.2813
  UL87 (P16730) protein level: 0.03862
  UL88 (P16731) protein level: 0.1555
  UL94 (P16800) protein level: 0.2402
  UL99 (P13200) protein level: 0.1374
  UL103 (P16734) protein level: 0.1294
  UL117 (P16770) protein level: 0.3032
  gH (P12824) protein level: 0.1717
  gL (P16832) protein level: 0.07772
  gM (P16733) protein level: 0.06954
  gN (P16795) protein level: 0.07119
Timepoint 72, LL
  IR12 (P16810) protein level: 0.182
  TRM3 (P16732) protein level: 0.02749
  TRX1 (P16783) protein level: 0.01995
  TRX2 (P16728) protein level: 0.01998
  UL24 (P16760) protein level: 0.1072
  UL40 (P16780) protein level: 0.6851
  UL47 (P16784) protein level: 0.08828
  UL49 (P16786) protein level: 1.209
  UL69 (P16749) protein level: 0.3758
  UL70 (P17149) protein level: 0.682
  UL83 (P06725) protein level: 0.03846
  UL132 (P69338) protein level: 0.215
  US15 (P09718) protein level: 0.6869
